Values quoted from earlier work as cited in patent publication US20080097086A1, “Process for preparing anti-tumor oligosaccharide material from chitosan” (TENWELL BIOTECHNOLOGY LIMITED, priority 2006, published 2008).
Values joined by “and” are separate entries in the source; they are usually repeats but may differ in a detail not shown here. Equal values may be shown once.

Legend:
S180 = conditions: intravenous, S180-implanted ddY mice
[1] = test system: fibrosarcoma (Meth-A) solid tumor cells

In the case of chitohexaose, the “inhibitory rate on tumor growth” value (S180; 3 times at 100 mg/Kg/d, after seven days, 100 mg/kg/day) is listed as 85% and 93%, the “control of tumor growth” value (S180; increased to 5 times) is listed as “complete control of tumor growth” and the “dose displaying the strongest effect” value ([1]; Meth-A solid tumor) is listed as 10 mg/kg. For the same substance, the “inhibition of Meth-A solid tumor” value ([1]; in vivo) was “significant inhibition”.
